{
  "source": "paper PMC6632015",
  "about": "“Niosomal Nanocarriers for Enhanced Skin Delivery of Quercetin with Functions of Anti-Tyrosinase and Antioxidant” (Molecules, 2019)",
  "key": {"[1]": {"test": "DPPH radical scavenging activity", "conditions": "DPPH 30 μg/mL, absorbance at 515 nm", "protocol": "The antioxidant activity of flavonoids was measured by the bleaching rate of DPPH, reported by Blois. In its radical form, DPPH absorbs at the wavelength of 515 nm, but its absorption decreases upon reduction by an antioxidant or a radical compound. The DPPH radical scavenging activity of flavonoids was evaluated according to the method described by Rui Yang, with some modifications. Briefly, 5 mL of DPPH (30 μg/mL) was mixed with 0.1 mL of absolute ethyl alcohol and 0.1 mL of samples with different concentrations. Then, the absorbance of the mixtures was determined at 515 nm. The DPPH radical scavenging activity was calculated as follows: (2) DPPH radical scavenging activity = A0−Ai/A0×100% where A0 and Ai denote the absorbance at 515 nm of the control (DPPH mixed with absolute ethyl alcohol) and the test samples (DPPH mixed with flavonoids)."}, "tyrosinase": {"test_system": "tyrosinase", "test": "In vitro tyrosinase inhibition (dopachrome formation at 493 nm, L-tyrosine substrate)", "type": "biochemical", "conditions": "for IC50 anti-tyrosinase activity: tyrosinase 120 unites/mL, phosphate buffer pH 6.8, 30 °C, L-tyrosine", "protocol": "The tyrosinase inhibition assay was performed based on a previous study with slight modification. The activity of tyrosinase inhibition was determined using a spectrophotometer by monitoring dopachrome formation at 493 nm. […] After incubation at 30 °C for 10 min, 0.5 mL of L-tyrosine was added to the systems. The reaction systems were incubated at 30 °C for 20 min and absorbance was determined at 493 nm. […] The degree of inhibition of the sample was expressed as 50% inhibition concentration (IC50).\nThe inhibitory effects of the test samples were expressed as the percentage of tyrosinase inhibition as follows:(1) Tyrosinase inhibition=(A−B)−(C−D)/(A−B)×100% where A and B denote the absorbance at 493 nm of the mixture without the test sample (L-tyrosine mixed with the enzyme in the buffer; the control) and without the test sample or the enzyme (L-tyrosine in the buffer; the blank), respectively; C and D denote those with the test sample and enzyme (L-tyrosine mixed with the enzyme and test sample in the buffer; the reaction mixture) and without the enzyme (L-tyrosine mixed with the test sample in the buffer; the blank version of C)."}, "[2]": {"test": "Solubility of quercetin in different release medium", "type": "physicochemical", "protocol": "An aqueous solutions of 15 mL of Tween80 and SDS at different concentrations and excess quercetin were placed into each of the vials. Vials were shaken in a 32 °C water bath for 24 h. After 24 h, 5 mL suspension was centrifuged at 3000 rmp for 15 min and 0.2 mL of the supernatant was diluted to 2 mL and determined using HPLC."}, "[3]": {"test": "Ex vivo drug permeation through rat abdominal skin (transdermal diffusion device)", "type": "in vitro ADME", "conditions": "0.6% Tween80 receptor medium, up to 24 h", "protocol": "Rats were sacrificed by cervical dislocation, hair on the abdomen was shaved, and then abdominal skin was separated and placed into physiological saline. Afterward, subcutaneous tissue (muscle, fat, and vascellum) was removed using surgical scissors and hemostatic forceps and then stored at 4 °C with physiological saline for further investigation. […] Then, 0.6% Tween80 solution was selected as the penetration release medium. Skin tissues were placed between the diffusion cell and receptor cell, and 0.4 mL of quercetin preparations (equivalent to 120 μg of quercetin) was applied on the skin. Penetration medium (0.5 mL) was withdrawn from the receptor cell at 1, 2, 4, 6, 8, 10, 12, and 24 h with the replacement of fresh penetration medium (0.5 mL). Penetration mediums withdrawn at different timepoints were diluted to 7 mL with methanol and determined by HPLC after centrifugation and filtration."}, "[4]": {"test": "Water solubility of quercetin and solubility in niosomes", "type": "physicochemical", "protocol": "The water solubility of quercetin was measured with 15 mL of purified water, phosphate buffers with different pH values (pH 5.0, 6.0, 6.8, 7.4, 8.0), and excess quercetin, and placed into vials. The vials were shaken for 24 h in a 37 °C water bath and the supernatant was determined by HPLC after centrifugation."}},
  "data": [
    {"compound": "C[C@@H]1O[C@@H](OC[C@H]2O[C@@H](Oc3c(-c4ccc(O)c(O)c4)oc4cc(O)cc(O)c4c3=O)[C@H](O)[C@@H](O)[C@@H]2O)[C@H](O)[C@H](O)[C@H]1O", "note": "[Rutin]", "values": [
      {"measurement": "EC50 DPPH radical scavenging activity", "setting": "[1]", "result": "188.28 ± 0.68", "unit": "µg/mL"},
      {"measurement": "anti-tyrosinase activity (in words)", "setting": "tyrosinase", "result": "no promising anti-tyrosinase activity"},
      {"measurement": "IC50 anti-tyrosinase activity", "setting": "tyrosinase", "result": ">1000", "unit": "µg/mL"}
    ]},
    {"compound": "O=C(O)[C@H]1O[C@@H](Oc2cc3oc(-c4ccc(O)cc4)cc(=O)c3c(O)c2O)[C@H](O)[C@@H](O)[C@@H]1O", "note": "[Breviscapine]", "values": [
      {"measurement": "EC50 DPPH radical scavenging activity", "setting": "[1]", "result": "368.08 ± 1.04", "unit": "µg/mL"},
      {"measurement": "anti-tyrosinase activity (in words)", "setting": "tyrosinase", "result": "no promising anti-tyrosinase activity"},
      {"measurement": "IC50 anti-tyrosinase activity", "setting": "tyrosinase", "result": ">1000", "unit": "µg/mL"}
    ]},
    {"compound": "O=c1c(O)c(-c2ccc(O)c(O)c2)oc2cc(O)ccc12", "note": "[Festin]", "values": [
      {"measurement": "EC50 DPPH radical scavenging activity", "setting": "[1]", "result": "83.19 ± 0.33", "unit": "µg/mL"},
      {"measurement": "IC50 anti-tyrosinase activity", "setting": "tyrosinase", "result": "23.10 ± 0.32", "unit": "µg/mL"}
    ]},
    {"compound": "O=c1c(O)c(-c2cc(O)c(O)c(O)c2)oc2cc(O)cc(O)c12", "note": "[Myricetin]", "values": [
      {"measurement": "EC50 DPPH radical scavenging activity", "setting": "[1]", "result": "118.63 ± 0.57", "unit": "µg/mL"},
      {"measurement": "anti-tyrosinase activity (in words)", "setting": "tyrosinase", "result": "no the anti-tyrosinase activity"}
    ]},
    {"compound": "Cc1cc(C(C)(C)C)c(O)c(C(C)(C)C)c1", "note": "[Butylated hydroxytoluene (BHT), Butylated hydroxytoluene, reference compound]", "values": [
      {"measurement": "EC50 DPPH radical scavenging activity", "setting": "[1]", "result": "358.15 ± 1.43", "unit": "µg/mL"}
    ]},
    {"compound": "O=c1c(O)c(-c2ccc(O)cc2O)oc2cc(O)cc(O)c12", "note": "[Morin]", "values": [
      {"measurement": "EC50 DPPH radical scavenging activity", "setting": "[1]", "result": "123.06 ± 0.48", "unit": "µg/mL"},
      {"measurement": "IC50 anti-tyrosinase activity", "setting": "tyrosinase", "result": "4.26 ± 0.47", "unit": "µg/mL"}
    ]},
    {"compound": "O=c1c(O)c(-c2ccc(O)c(O)c2)oc2cc(O)cc(O)c12", "note": "[Quercetin]", "values": [
      {"measurement": "EC50 DPPH radical scavenging activity", "setting": "[1]", "result": "80.75 ± 0.26", "unit": "µg/mL"},
      {"measurement": "Solubility in Tween80 Aqueous Solution", "setting": "[2]; 0.1% Tween80, 32 °C, 24 h", "result": "12.19 ± 1.05", "unit": "µg/mL"},
      {"measurement": "solubility at 24 h", "setting": "[2]; 0.2% SDS aqueous solution, 0.2% SDS, 32 °C, 24 h, read-out: Solubility in SDS Aqueous Solution", "result": "4.58 ± 0.04", "unit": "µg/mL"},
      {"measurement": "solubility at 24 h", "setting": "[2]; 0.2% Tween80 aqueous solution, 32 °C, aqueous with cosolvent or surfactant or cyclodextrin, thermodynamic from solid, 0.2% Tween80, 32 °C, 24 h, read-out: Solubility in Tween80 Aqueous Solution", "result": "24.7 ± 2.15", "unit": "µg/mL"},
      {"measurement": "solubility at 24 h", "setting": "[2]; 0.3% Tween80 aqueous solution, 0.3% Tween80, 32 °C, 24 h, read-out: Solubility in Tween80 Aqueous Solution", "result": "31.4 ± 0.73", "unit": "µg/mL"},
      {"measurement": "Solubility in SDS Aqueous Solution", "setting": "[2]; 0.4% SDS, 32 °C, 24 h", "result": "4.22 ± 0.43", "unit": "µg/mL"},
      {"measurement": "solubility at 24 h", "setting": "[2]; 0.4% Tween80 aqueous solution, 0.4% Tween80, 32 °C, 24 h, read-out: Solubility in Tween80 Aqueous Solution", "result": "41.34 ± 0.19", "unit": "µg/mL"},
      {"measurement": "solubility at 24 h", "setting": "[2]; 0.6% SDS aqueous solution, 32 °C, aqueous with cosolvent or surfactant or cyclodextrin, thermodynamic from solid, 0.6% SDS, 32 °C, 24 h, read-out: Solubility in SDS Aqueous Solution", "result": "6.48 ± 0.44", "unit": "µg/mL"},
      {"measurement": "solubility at 24 h", "setting": "[2]; 0.6% Tween80 aqueous solution, 0.6% Tween80, 32 °C, 24 h, read-out: Solubility in Tween80 Aqueous Solution", "result": "56.4 ± 1.42", "unit": "µg/mL"},
      {"measurement": "Solubility in pH-0.8%Tween80 Aqueous Solution", "setting": "[2]; 0.8% Tween80, pH 5.0", "result": "79.49 ± 0.41", "unit": "μg/mL"},
      {"measurement": "solubility at 24 h", "setting": "[2]; 0.8% Tween80 aqueous solution, 32 °C, aqueous with cosolvent or surfactant or cyclodextrin, thermodynamic from solid, 0.8% Tween80, 32 °C, 24 h, read-out: Solubility in Tween80 Aqueous Solution", "result": "76.1 ± 3.11", "unit": "µg/mL"},
      {"measurement": "solubility at 24 h", "setting": "[2]; 0.8% Tween80 aqueous solution, 32 °C, pH 5, aqueous with cosolvent or surfactant or cyclodextrin, thermodynamic from solid, 0.8% Tween80, pH 5.0, read-out: Solubility in pH-0.8%Tween80 Aqueous Solution", "result": "76.1 ± 3.11", "unit": "µg/mL"},
      {"measurement": "solubility at 24 h", "setting": "[2]; 0.8% Tween80 aqueous solution, 32 °C, pH 6.8, aqueous with cosolvent or surfactant or cyclodextrin, thermodynamic from solid, 0.8% Tween80, pH 6.8, read-out: Solubility in pH-0.8%Tween80 Aqueous Solution", "result": "52.4 ± 0.71", "unit": "µg/mL"},
      {"measurement": "solubility at 24 h", "setting": "[2]; 0.8% Tween80 aqueous solution, pH 7.4, 0.8% Tween80, pH 7.4, read-out: Solubility in pH-0.8%Tween80 Aqueous Solution", "result": "55 ± 6.6", "unit": "µg/mL"},
      {"measurement": "quercetin in the penetration release medium (ex vivo penetration)", "setting": "[3]", "result": "could not be determined"},
      {"measurement": "solubility in niosomes, fold higher than in water", "setting": "[4]", "result": 1247, "unit": "fold"},
      {"measurement": "solubility at 24 h", "setting": "[4]; 37 °C, water, thermodynamic from solid", "result": "0.21 ± 0.14", "unit": "µg/mL"},
      {"measurement": "Solubility", "setting": "[4]; medium: niosomes, from 300 μg/mL loaded and entrapment 87.3 ± 1.6%", "result": "261.9 ± 4.8", "unit": "µg/mL"},
      {"measurement": "IC50 anti-tyrosinase activity", "setting": "tyrosinase", "result": "1.59 ± 0.38", "unit": "µg/mL"}
    ]}
  ]
}
